Experimental data: US7622469B2, “2,4-diamino-1,3,5-triazine derivatives” (Hamari Chemicals, Ltd., priority 2002, dated 2009)

Legend:
VRE 49 [1] = experiment: Antibacterial activity test (MIC); type: cell-based, vancomycin-resistant enterococci; settings: Mueller-Hinton Broth, 37° C., 20 to 24 hours
Experimental: Regarding compounds obtained in respective Working Examples, in order to investigate antibacterial activity, minimal inhibitory concentration (MIC) was determined according to a standard method of Japanese Society of Chemotherapy.
As a test bacterium, nine kinds of S. aureus 209PJC, MRSA 97-115, MRSA KM 97-53, MRSA KM97-108, VRE 49, E. coli NIHJ JC-2, P. aeruginosa PAO-1, P. aeruginosa No. 12, P. aeruginosa KM97-5 were used and, as a medium, Mueller-Hinton Broth (DIFCO) was used. One platinum loop of a test bacterium was inoculated into 20 ml of a medium, and static culture was carried out at 37° C. for 16 to 20 hours, and then each bacterium species was diluted with a sterilized physiological saline to 10^5/ml, which was used as a test bacterium solution.
Then, each compound was dissolved in methanol, subjected to ½ stepwise dilution with a medium to prepare a medium for measuring sensitivity, and each 2 ml was dispensed into a test tube. A compound concentration in a medium was adjusted to 100 μg/ml and its 2^n-fold (n=−10 to 1).
Numerical values in Tables represent MIC expressed in μg/ml unit.

E. coli NIHJ JC-2 [2] = experiment: Antibacterial activity test (MIC); type: cell-based; settings: Mueller-Hinton Broth, 37° C., 20 to 24 hours
How it was run: (§1)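 Broth dilution MIC per the Japanese Society of Chemotherapy standard method in Mueller-Hinton Broth. Strains were grown statically at 37° C for 16 to 20 hours and diluted in sterile saline to 10^5/ml. Compounds were dissolved in methanol and serially diluted twofold in medium, giving 100 μg/ml and 2^n-fold (n=−10 to 1).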

P. aeruginosa KM 97-5 [3] = experiment: Antibacterial activity test (MIC); type: cell-based; settings: Mueller-Hinton Broth, 37° C., 20 to 24 hours
How it was run: as §1

P. aeruginosa No. 12 [4] = experiment: Antibacterial activity test (MIC); type: cell-based; settings: Mueller-Hinton Broth, 37° C., 20 to 24 hours
How it was run: as §1

S. aureus 209PJC [5] = experiment: Antibacterial activity test (MIC); type: cell-based; settings: Mueller-Hinton Broth, 37° C., 20 to 24 hours
How it was run: as §1

MRSA KM 97-53 [6] = experiment: Antibacterial activity test (MIC); type: cell-based, methicillin-resistant Staphylococcus aureus; settings: Mueller-Hinton Broth, 37° C., 20 to 24 hours
How it was run: as §1

MRSA KM 97-108 [7] = experiment: Antibacterial activity test (MIC); type: cell-based, methicillin-resistant Staphylococcus aureus; settings: Mueller-Hinton Broth, 37° C., 20 to 24 hours
How it was run: as §1

MRSA 97-115 [8] = experiment: Antibacterial activity test (MIC); type: cell-based, methicillin-resistant Staphylococcus aureus; settings: Mueller-Hinton Broth, 37° C., 20 to 24 hours
How it was run: as §1

E. coli NIHJ JC-2 [9] = experiment: Bactericidal activity test (MBC, phenol coefficient measuring method); type: cell-based
Experimental: (§2) As a test bacterium, the same bacteria species as those of the antibacterial activity test were used; as a medium to be used, a SCD medium (manufactured by Eiken Chemical Co., Ltd.) was used for pre-culture medium; and a heart infusion bouillon medium (manufactured by Eiken Chemical Co., Ltd.) was used as a medium for growing a live bacterium in a test solution after bactericidal treatment. One platinum loop of a test bacterium was inoculated into 20 ml of a medium, and static culture was carried out at 37° C. for 18 to 20 hours, and the cells were adjusted with a sterilized physiological saline to 1×10^7/ml, which was used as a test bacterium solution.
(§3) Then, a solution of each compound in methanol was subjected to ½ stepwise dilution with sterilized water, each 5 ml was dispensed into a test tube, 0.5 ml of the previously prepared test bacterium solution was added thereto, and the mixture was blended well. After 1 minute, 3 minutes and 5 minutes has passed, 5 μl of the test solution was collected and inoculated into 2 ml of a heart infusion bouillon medium, this was cultured at 37° C. for 40 to 48 hours, and the presence or absence of growth of a bacterium was determined. A test was performed three times, a minimum concentration at which growth of a bacterium was not recognized two or more times was adopted as a minimal bactericidal concentration (MBC value).
(§4) Numerical values in Tables represent MBC expressed in μg/ml unit.

P. aeruginosa KM 97-5 [10] = experiment: as above; type: cell-based
Experimental: as §2, §3, §4

P. aeruginosa No. 12 [11] = experiment: as above; type: cell-based
Experimental: as §2, §3, §4

S. aureus 209PJC [12] = experiment: as above; type: cell-based
Experimental: as §2, §3, §4

VRE 49 [13] = experiment: as above; type: cell-based, vancomycin-resistant enterococci
Experimental: as §2, §3, §4

MRSA KM 97-53 [14] = experiment: as above; type: cell-based, methicillin-resistant Staphylococcus aureus
Experimental: as §2, §3, §4

MRSA KM 97-108 [15] = experiment: as above; type: cell-based, methicillin-resistant Staphylococcus aureus
Experimental: as §2, §3, §4

MRSA 97-115 [16] = experiment: as above; type: cell-based, methicillin-resistant Staphylococcus aureus
Experimental: as §2, §3, §4

P. aeruginosa PAO-1 [17] = experiment: Antibacterial activity test (MIC); type: cell-based; settings: Mueller-Hinton Broth, 37° C., 20 to 24 hours
How it was run: as §1

P. aeruginosa PAO-1 [18] = experiment: Bactericidal activity test (MBC, phenol coefficient measuring method); type: cell-based
Experimental: as §2, §3, §4

SMILES	minimal inhibitory concentration (MIC) (E. coli NIHJ JC-2 [2])	minimal inhibitory concentration (MIC) (S. aureus 209PJC [5])	minimal inhibitory concentration (MIC) (MRSA 97-115 [8])	minimal bactericidal concentration (MBC) (E. coli NIHJ JC-2 [9]; 1 min)	minimal bactericidal concentration (MBC) (E. coli NIHJ JC-2 [9]; 3 min)	minimal bactericidal concentration (MBC) (E. coli NIHJ JC-2 [9]; 5 min)	minimal bactericidal concentration (MBC) (S. aureus 209PJC [12]; 1 min)	minimal bactericidal concentration (MBC) (S. aureus 209PJC [12]; 3 min)	minimal bactericidal concentration (MBC) (S. aureus 209PJC [12]; 5 min)	minimal bactericidal concentration (MBC) (MRSA 97-115 [16]; 1 min)	minimal bactericidal concentration (MBC) (MRSA 97-115 [16]; 3 min)	minimal bactericidal concentration (MBC) (MRSA 97-115 [16]; 5 min)	minimal inhibitory concentration (MIC) (P. aeruginosa PAO-1 [17])	minimal bactericidal concentration (MBC) (P. aeruginosa PAO-1 [18]; 1 min)	minimal bactericidal concentration (MBC) (P. aeruginosa PAO-1 [18]; 3 min)	minimal bactericidal concentration (MBC) (P. aeruginosa PAO-1 [18]; 5 min)	also measured
N=C(NCCCCCCNC(=N)NC(=N)Nc1ccc(Cl)cc1)NC(=N)Nc1ccc(Cl)cc1.O=C(O)[C@H](O)[C@@H](O)[C@H](O)[C@H](O)CO.O=C(O)[C@H](O)[C@@H](O)[C@H](O)[C@H](O)CO [Control drug, chlorhexidine gluconate, reference compound]	1.6 mg/L	0.2 mg/L	3.1 mg/L	62.5 mg/L	31.3 mg/L	15.6 mg/L	62.5 mg/L	62.5 mg/L	62.5 mg/L	1000 mg/L	250 mg/L	125 mg/L					minimal inhibitory concentration (MIC) (VRE 49 [1]): 3.1 mg/L; minimal inhibitory concentration (MIC) (P. aeruginosa KM 97-5 [3]): 12.5 mg/L; minimal inhibitory concentration (MIC) (P. aeruginosa No. 12 [4]): 12.5 mg/L; minimal inhibitory concentration (MIC) (MRSA KM 97-53 [6]): 3.1 mg/L; minimal inhibitory concentration (MIC) (MRSA KM 97-108 [7]): 3.1 mg/L; minimal bactericidal concentration (MBC) (P. aeruginosa KM 97-5 [10]; 1 min): 31 mg/L; minimal bactericidal concentration (MBC) (P. aeruginosa KM 97-5 [10]; 3 min): 16 mg/L; minimal bactericidal concentration (MBC) (P. aeruginosa KM 97-5 [10]; 5 min): 8 mg/L; minimal bactericidal concentration (MBC) (P. aeruginosa No. 12 [11]; 1 min): 125 mg/L; minimal bactericidal concentration (MBC) (P. aeruginosa No. 12 [11]; 3 min): 32 mg/L; minimal bactericidal concentration (MBC) (P. aeruginosa No. 12 [11]; 5 min): 32 mg/L; minimal bactericidal concentration (MBC) (VRE 49 [13]; 1 min): >1000 mg/L; minimal bactericidal concentration (MBC) (VRE 49 [13]; 3 min): >1000 mg/L; minimal bactericidal concentration (MBC) (VRE 49 [13]; 5 min): >1000 mg/L; minimal bactericidal concentration (MBC) (MRSA KM 97-53 [14]; 1 min): 500 mg/L; minimal bactericidal concentration (MBC) (MRSA KM 97-53 [14]; 3 min): 250 mg/L; minimal bactericidal concentration (MBC) (MRSA KM 97-53 [14]; 5 min): 250 mg/L; minimal bactericidal concentration (MBC) (MRSA KM 97-108 [15]; 1 min): 500 mg/L; minimal bactericidal concentration (MBC) (MRSA KM 97-108 [15]; 3 min): 500 mg/L; minimal bactericidal concentration (MBC) (MRSA KM 97-108 [15]; 5 min): 500 mg/L
Br.CCCCCCCCCNC1=NC(C)(C)N=C(NCc2ccccc2)N1 [compound 49]	12.5 mg/L	0.4 mg/L	0.8 mg/L	12.5 mg/L	6.3 mg/L	3.1 mg/L	12.5 mg/L	6.3 mg/L	6.3 mg/L	25 mg/L	12.5 mg/L	12.5 mg/L	25 mg/L	12.5 mg/L	3.1 mg/L	3.1 mg/L	
CC(=O)O.CCCCCCCCCNC1=NC(C)(C)N=C(NCCc2ccccc2)N1 [compound 56]	12.5 mg/L	0.4 mg/L	0.8 mg/L	12.5 mg/L	3.1 mg/L	3.1 mg/L	25 mg/L	12.5 mg/L	6.3 mg/L	25 mg/L	12.5 mg/L	6.3 mg/L	12.5 mg/L	12.5 mg/L	3.1 mg/L	1.6 mg/L	
CC(=O)O.CCCCCCCCNC1=NC(C)(C)N=C(NCC2CCCCC2)N1 [compound 65]	25 mg/L	0.8 mg/L	0.8 mg/L	3.1 mg/L	1.6 mg/L	1.6 mg/L	12.5 mg/L	3.1 mg/L	3.1 mg/L	25 mg/L	12.5 mg/L	12.5 mg/L	50 mg/L	3.1 mg/L	1.6 mg/L	1.6 mg/L	
CC(=O)O.CCCCCCCNC1=NC(C)(C)N=C(NCCCCCCC)N1 [compound 69]	12.5 mg/L	0.8 mg/L	0.8 mg/L	6.3 mg/L	3.1 mg/L	3.1 mg/L	6.3 mg/L	6.3 mg/L	3.1 mg/L	25 mg/L	25 mg/L	12.5 mg/L	50 mg/L	3.1 mg/L	1.6 mg/L	1.6 mg/L	
CCCCCCCCCCCCCCNC1=NC(C)(C)N=C(N)N1.Cl [compound 72]	25 mg/L	0.8 mg/L	1.6 mg/L	6.3 mg/L	3.1 mg/L	3.1 mg/L	3.1 mg/L	1.6 mg/L	1.6 mg/L	25 mg/L	12.5 mg/L	12.5 mg/L	25 mg/L	3.1 mg/L	1.6 mg/L	1.6 mg/L	
CC(=O)O.CCCCCCCCNC1=NC(C)(C)N=C(Nc2cnc3ccccc3c2)N1 [compound 82]	25 mg/L	0.8 mg/L	1.6 mg/L	6.3 mg/L	6.3 mg/L	3.1 mg/L	12.5 mg/L	6.3 mg/L	6.3 mg/L	50 mg/L	25 mg/L	25 mg/L	50 mg/L	12.5 mg/L	12.5 mg/L	6.3 mg/L	
